Experimental findings from patent publication US20250222009A1, “DINUCLEAR GOLD(I) COMPLEXES FOR TREATING CANCER” (KING FAHD UNIVERSITY OF PETROLEUM AND MINERALS, priority 2024, published 2025) are described below.

What all share (type): cell-based, human
One assay relates to ALDH1. In words: ALDH1 enzymatic activity (Aldeflour), flow cytometry. As to conditions: A549, 24 h. The protocol: (§1) 2.0×10^5 A549 cells were seeded in 6-well plates in a complete medium and treated with the complex 3. Assay results were detected by flow cytometry on a BD FACSCanto II flow cytometer. Data were analyzed using BD FACSDiva v.8.0.1 software (BD Biosciences) unless otherwise indicated. Tumor cells were treated for 72 h with complex 3, then stained for 15 minutes with FITC Annexin-V (Thermo Fisher Scientific) and 7AAD (BD Pharmingen, Milan, Italy). Activated caspase-3,7 was detected using the CaspaTag Caspase-3,7 assay (Merck Millipore) after an incubation of 24 h with complex 3. For B-cell lymphoma/leukemia-2 protein (Bcl-2) and Bcl-2 associated x protein (Bax) analysis, cells were treated for 72 h with C3, then fixed and permeabilized (FIX & PERM Cell Fixation & Cell Permeabilization Kit, Life Technologies). […] The distribution of cells in different cell cycle phases was quantified using ModFit LT 4.0 software (Verity Software House, Topsham, ME, USA) (See: Sulaiman, A. A. A.; Casagrande, N.; Borghese, C.; Corona, G.; Isab, A. A.; Ahmad, S.; Aldinucci, D.; Altaf M. Design, Synthesis, and Preclinical Activity in Ovarian Cancer Models of New Phosphanegold(I)—N-Heterocyclic Carbene Complexes. J Med Chem 2022, 65, 14424-14440, which is incorporated herein by reference in its entirety). […]

The test system of a further assay is A549 cells. Put plainly: Cell cycle analysis (propidium iodide, flow cytometry). As to conditions: A549, 24 h, 0.06-0.60 μM. The procedure:
as §1

In a further assay the test system is CD44. Put plainly: CD44 surface expression, flow cytometry. To be noted: A549, 24 h. The procedure:
as §1
Background: A flow cytometer gives signals particle by particle.

In the case of `CC(C)c1cccc(C(C)C)c1-n1ccn(-c2c(C(C)C)cccc2C(C)C)[c]1=[Au-][P+](CCNCC[P+]([Au-]=[c]1n(-c2c(C(C)C)cccc2C(C)C)ccn1-c1c(C(C)C)cccc1C(C)C)(C1CCCCC1)C1CCCCC1)(C1CCCCC1)C1CCCCC1` [Complex 3, [(Au(IPr))2(C28H24P2)](PF6)2], in the assay on ALDH1, the ALDH1 enzymatic activity entry is given as “reduced”. Moreover, in the assay with A549 cells, the “cells in G0/G1 phase of the cell cycle” value is “accumulation” and the “cells in S phase of the cell cycle” value is “decrease”. The CD44 expression entry with CD44 is recorded as “decreased”.
